Experimental data as given in ChEMBL document CHEMBL2380247, “Synthesis and biological evaluation of novel aliphatic amido-quaternary ammonium salts for anticancer chemotherapy: part II” (2013).

How the values were obtained:
Type in all cases: functional
MDA-MB-231 [1] = assay: Antiproliferative activity against human MDA-MB-231 cells by SRB assay
HCT-15 [2] = assay: Antiproliferative activity against human HCT15 cells by SRB assay
MDA-MB-231 [3] = assay: Antiproliferative activity against human MDA-MB-231 cells at 10 uM by SRB assay
NUGC-3 [4] = assay: Antiproliferative activity against human NUGC3 cells at 0.1 uM by SRB assay
NUGC-3 [5] = assay: Antiproliferative activity against human NUGC3 cells at 10 uM by SRB assay
NCI-H23 [6] = assay: Antiproliferative activity against human NCI-H23 cells at 3 uM by SRB assay
MDA-MB-231 [7] = assay: Antiproliferative activity against human MDA-MB-231 cells at 1 uM by SRB assay
NCI-H23 [8] = assay: Antiproliferative activity against human NCI-H23 cells at 0.1 uM by SRB assay
NUGC-3 [9] = assay: Antiproliferative activity against human NUGC3 cells at 3 uM by SRB assay
ACHN [10] = assay: Antiproliferative activity against human ACHN cells at 0.1 uM by SRB assay
NCI-H23 [11] = assay: Antiproliferative activity against human NCI-H23 cells at 0.3 uM by SRB assay
NCI-H23 [12] = assay: Antiproliferative activity against human NCI-H23 cells by SRB assay
HCT-15 [13] = assay: Antiproliferative activity against human HCT15 cells at 10 uM by SRB assay
NUGC-3 [14] = assay: Antiproliferative activity against human NUGC3 cells at 1 uM by SRB assay
PC-3 [15] = assay: Antiproliferative activity against human PC3 cells at 3 uM by SRB assay
NCI-H23 [16] = assay: Antiproliferative activity against human NCI-H23 cells at 10 uM by SRB assay
MDA-MB-231 [17] = assay: Antiproliferative activity against human MDA-MB-231 cells at 0.1 uM by SRB assay
HCT-15 [18] = assay: Antiproliferative activity against human HCT15 cells at 1 uM by SRB assay
ACHN [19] = assay: Antiproliferative activity against human ACHN cells at 0.3 uM by SRB assay
PC-3 [20] = assay: Antiproliferative activity against human PC3 cells at 10 uM by SRB assay
ACHN [21] = assay: Antiproliferative activity against human ACHN cells by SRB assay
HCT-15 [22] = assay: Antiproliferative activity against human HCT15 cells at 3 uM by SRB assay
PC-3 [23] = assay: Antiproliferative activity against human PC3 cells by SRB assay
NUGC-3 [24] = assay: Antiproliferative activity against human NUGC3 cells at 0.3 uM by SRB assay
HCT-15 [25] = assay: Antiproliferative activity against human HCT15 cells at 0.1 uM by SRB assay
ACHN [26] = assay: Antiproliferative activity against human ACHN cells at 3 uM by SRB assay
PC-3 [27] = assay: Antiproliferative activity against human PC3 cells at 0.3 uM by SRB assay
NUGC-3 [28] = assay: Antiproliferative activity against human NUGC3 cells by SRB assay
MDA-MB-231 [29] = assay: Antiproliferative activity against human MDA-MB-231 cells at 3 uM by SRB assay
HCT-15 [30] = assay: Antiproliferative activity against human HCT15 cells at 0.3 uM by SRB assay
MDA-MB-231 [31] = assay: Antiproliferative activity against human MDA-MB-231 cells at 0.3 uM by SRB assay
NCI-H23 [32] = assay: Antiproliferative activity against human NCI-H23 cells at 1 uM by SRB assay
ACHN [33] = assay: Antiproliferative activity against human ACHN cells at 10 uM by SRB assay
ACHN [34] = assay: Antiproliferative activity against human ACHN cells at 1 uM by SRB assay
PC-3 [35] = assay: Antiproliferative activity against human PC3 cells at 0.1 uM by SRB assay
PC-3 [36] = assay: Antiproliferative activity against human PC3 cells at 1 uM by SRB assay

Row | Compound | GI50 (MDA-MB-231 [1]) [nM] | GI50 (HCT-15 [2]) [nM] | growth, % of control at 10 µM (MDA-MB-231 [3]) [%] | growth, % of control at 0.1 µM (NUGC-3 [4]) [%] | growth, % of control at 10 µM (NUGC-3 [5]) [%] | growth, % of control at 3 µM (NCI-H23 [6]) [%] | growth, % of control at 1 µM (MDA-MB-231 [7]) [%] | growth, % of control at 0.1 µM (NCI-H23 [8]) [%] | growth, % of control at 3 µM (NUGC-3 [9]) [%] | growth, % of control at 0.1 µM (ACHN [10]) [%] | growth, % of control at 0.3 µM (NCI-H23 [11]) [%] | GI50 (NCI-H23 [12]) [nM] | growth, % of control at 10 µM (HCT-15 [13]) [%] | growth, % of control at 1 µM (NUGC-3 [14]) [%] | growth, % of control at 3 µM (PC-3 [15]) [%] | growth, % of control at 10 µM (NCI-H23 [16]) [%] | growth, % of control at 0.1 µM (MDA-MB-231 [17]) [%] | growth, % of control at 1 µM (HCT-15 [18]) [%] | growth, % of control at 0.3 µM (ACHN [19]) [%] | growth, % of control at 10 µM (PC-3 [20]) [%] | further results
1 | CCCCCCCCCCCCCCCCCC(=O)NCC(C)(C)C[N+](C)(C)Cc1ccccc1 | 2150 | > 10000 | 20.6 | 96.5 | -11 | 34.9 | 86 | 93.4 | 40.4 | 101 | 80.7 | 910 | 85.2 | 82 | -5.4 | -25.8 | 95.5 | 101 | 94 | -38.9 | GI50 (ACHN [21]): 2230 nM; growth, % of control at 3 µM (HCT-15 [22]): 100%; GI50 (PC-3 [23]): 510 nM; growth, % of control at 0.3 µM (NUGC-3 [24]): 101%; growth, % of control at 0.1 µM (HCT-15 [25]): 111%; growth, % of control at 3 µM (ACHN [26]): 74.1%; growth, % of control at 0.3 µM (PC-3 [27]): 95.6%; GI50 (NUGC-3 [28]): 1320 nM; growth, % of control at 3 µM (MDA-MB-231 [29]): 58.9%; growth, % of control at 0.3 µM (HCT-15 [30]): 102%; growth, % of control at 0.3 µM (MDA-MB-231 [31]): 91.4%; growth, % of control at 1 µM (NCI-H23 [32]): 70.6%; growth, % of control at 10 µM (ACHN [33]): 0.64%; growth, % of control at 1 µM (ACHN [34]): 87.4%; growth, % of control at 0.1 µM (PC-3 [35]): 101%; growth, % of control at 1 µM (PC-3 [36]): 38.5%
2 | C=CC[N+](C)(C)CCCN(C)C(=O)CCCCCCCCCCCCCCC | 800 | > 10000 | 11.6 | 105 | -30.4 | 23.9 | 66 | 93.2 | -13.9 | 81 | 94.7 | 680 | 58 | 28.1 | 7.93 | -13.6 | 86.5 | 103 | 77.3 | -11.9 | GI50 (ACHN [21]): 470 nM; growth, % of control at 3 µM (HCT-15 [22]): 81.2%; GI50 (PC-3 [23]): 430 nM; growth, % of control at 0.3 µM (NUGC-3 [24]): 92.8%; growth, % of control at 0.1 µM (HCT-15 [25]): 97.4%; growth, % of control at 3 µM (ACHN [26]): 30%; growth, % of control at 0.3 µM (PC-3 [27]): 98%; GI50 (NUGC-3 [28]): 360 nM; growth, % of control at 3 µM (MDA-MB-231 [29]): 33.8%; growth, % of control at 0.3 µM (HCT-15 [30]): 103%; growth, % of control at 0.3 µM (MDA-MB-231 [31]): 88.3%; growth, % of control at 1 µM (NCI-H23 [32]): 65.5%; growth, % of control at 10 µM (ACHN [33]): -6.41%; growth, % of control at 1 µM (ACHN [34]): 53.3%; growth, % of control at 0.1 µM (PC-3 [35]): 98.5%; growth, % of control at 1 µM (PC-3 [36]): 41.9%
